Where a name gives a salt, the structure may show the parent alone.
Key:
[1] = Pharmacokinetics after oral capsule administration in male beagle dogs pre-treated with pentagastrin or famotidine; assay type: in vivo
Procedure: The substances were filled into Empty HPMC Capsules after correcting for potency and administered to dogs pre-treated with either pentagastrin or famotidine along with 40 mL of water. Pentagastrin enhances gastric secretions whereas famotidine neutralizes gastric sections. Therefore, pentagastrin and famotidine pre-treatments were used to simulate the impact of gastric pH on bioavailability and reduce the variability in gastric pH between dogs.
Plasma samples were collected at pre-defined intervals and analyzed for the concentration of Compound 1. The plasma concentration versus time data was analyzed by non-compartmental approaches using Win Nonlin software program to estimate PK parameters such as Cmax, Tmax, AUC0-t and AUC0-inf.

[2] = Intrinsic dissolution rate and drug in capsule dissolution in FaSSGF and FaSSIF; assay type: physicochemical
Procedure: The IDR rate was calculated using the slope of the linear curve divided by the surface area of tablet (0.5 cm^2). […] 0.6 mL liquid was removed with a syringe at each time point and filtered. The concentration of filtrates was analyzed by HPLC.

[3] = Excipient compatibility (binary mixtures, total impurity by HPLC); assay type: physicochemical
Source text: Binary mixtures of samples were created by mixing the substance and the excipients (1:10 Compound to Excipients for fillers and 1:1 for all other excipients) using a mortar and pestle and the resultant mixture was accurately weighed and transferred into sample vials. The excipients used were as follows: colloidal silicon dioxide 200, croscarmellose sodium, crospovidone XL-10, dibasic calcium phosphate (an), hydroxypropyl cellulose, lactose monohydrate, magnesium stearate, mannitol 100SD, MCC PH102, Opadry™ II, povidone K-30, pregelatinized starch 1500, sodium starch glycolate, and sodium stearyl fumarate. The sample vials were set down at 40° C./75% RH condition for 8 weeks in open condition before analyzing their impurity levels using HPLC.

[4] = Dynamic vapor sorption (DVS) hygroscopicity; assay type: physicochemical; conditions: for form change after DVS evaluation: sample after DVS
Procedure: The hygroscopicity of HCl Form A was also evaluated by conducting dynamic vapor sorption experiments.
The hygroscopicity of HCl Form B was also evaluated by conducting dynamic vapor sorption experiments.
The hygroscopicity of HCl Form E was also evaluated by conducting dynamic vapor sorption experiments.

[5] = Manufacturability and physical stability (compressibility, tabletability, compatibility, XRD after compaction); assay type: physicochemical
Procedure: The XRD patterns were compared with the uncompressed compound. X-ray powder diffractograms were obtained on a wide-angle X-ray diffraction instrument (X'Pert Pro; PANalytical Inc., West Borough, MA) using Cu Ká radiation. The voltage and current applied were 45 kV and 40 mA, respectively. Each measurement was performed with a step size of 0.0167° in the 2-theta range of 5-35° and a dwell time of 0.4 s.

[6] = Competitive slurry experiments (relative stability of crystal forms); assay type: physicochemical
Source text: Pattern A was observed under certain conditions during competitive slurry experiments. Pattern A was confirmed to be racemate by chiral HPLC analysis.

[7] = 25° C. between 10% relative humidity and 90% relative humidity, hydrochloride salt

Cn1ncc(-c2ccc3c(=O)[nH]nc(CN)c3c2)c1-c1c(F)c(Cl)cc(OC2CC2)c1C#N [Free Base Form A, 2-(4-(4-(aminomethyl)-1-oxo-1,2-dihydrophthalazin-6-yl)-1-methyl-1H-pyrazol-5-yl)-4-chloro-6-cyclopropoxy-3-fluorobenzonitrile]
exposure ([1]; oral 100 mg/dog, when the particle size was normalized): equivalent exposure to HCl salt | dissolution in gastric media ([2]; 37° C., 50 rpm, USP Type II): faster dissolution in gastric media | super saturation in intestinal fluid ([2]; pH shifted from gastric to intestinal after 30 minutes): able to maintain super saturation in intestinal fluid | compatibility with excipients (total impurity content) ([3]; binary mixtures, 40° C./75% RH, 8 weeks, open condition, HPLC): good compatibility with excipients | sensitivity to individual excipients ([3]; colloidal silicon dioxide and lactose monohydrate, 40° C./75% RH, 8 weeks, open): more sensitive to colloidal silicon dioxide and lactose monohydrate than HCl Form B | risk of chemical stability ([3]; with excipients, manageable by choice of excipients): slightly higher

Cn1ncc(-c2ccc3c(=O)[nH]nc(CN)c3c2)c1-c1c(F)c(Cl)cc(OC2CC2)c1C#N [HCl Form A, 2-(4-(4-(aminomethyl)-1-oxo-1,2-dihydrophthalazin-6-yl)-1-methyl-1H-pyrazol-5-yl)-4-chloro-6-cyclopropoxy-3-fluorobenzonitrile hydrochloride salt]
stability relative to the other HCl form ([1]; conclusion drawn from the dog study results): less stable than HCl Form B | water uptake (DVS isotherm) [4, 7]: approximately 1.43% | Hygroscopicity (25° C./80% RH), class in words [4]: slightly | Hygroscopicity (25° C./80% RH) ([4]; hydrochloride salt): 1.43% | form change after DVS evaluation [4]: No form change was observed

Cn1ncc(-c2ccc3c(=O)[nH]nc(CN)c3c2)c1-c1c(F)c(Cl)cc(OC2CC2)c1C#N [HCl Form B, 2-(4-(4-(aminomethyl)-1-oxo-1,2-dihydrophthalazin-6-yl)-1-methyl-1H-pyrazol-5-yl)-4-chloro-6-cyclopropoxy-3-fluorobenzonitrile hydrochloride salt]
water uptake (DVS isotherm) [4, 7]: approximately 1.3% | Hygroscopicity (25° C./80% RH), class in words [4]: slightly | Hygroscopicity (25° C./80% RH) ([4]; hydrochloride salt): 1.3% | form change after DVS evaluation [4]: No form change was observed | dissolution rate in intestinal media ([2]; 37° C., 50 rpm, USP Type II): slightly faster dissolution rate than Free Base Form A | dissolution in gastric media ([2]; 37° C., 50 rpm, USP Type II, hydrochloride salt): common ion effect slowing dissolution | compatibility (tensile strength vs porosity) ([5]; at high pressures): good | compressibility (porosity vs compaction pressure) ([5]; at high pressures): good | tabletability (tensile strength vs compaction pressure) ([5]; at high pressures): good | phase stability by XRD after compression ([5]; high compaction pressure (300 MPa)): loss of crystallinity was observed

Cn1ncc(-c2ccc3c(=O)[nH]nc(CN)c3c2)c1-c1c(F)c(Cl)cc(OC2CC2)c1C#N [HCl Form E, 2-(4-(4-(aminomethyl)-1-oxo-1,2-dihydrophthalazin-6-yl)-1-methyl-1H-pyrazol-5-yl)-4-chloro-6-cyclopropoxy-3-fluorobenzonitrile hydrochloride salt]
water uptake (DVS isotherm) ([4]; 25° C. between 0% relative humidity and 80% relative humidity): approximately 2.56% | Hygroscopicity (25° C./80% RH), class in words [4]: slightly | Hygroscopicity (25° C./80% RH) ([4]; hydrochloride salt): 2.56% | form change after DVS evaluation [4]: No form change was observed | Crystal Form ([6]; H2O (starting with Type E only) at 25° C., 4 d): Form B | Crystal Form ([6]; H2O (starting with Type E only) at 25° C., 8 d): Form B

Cn1ncc(-c2ccc3c(=O)[nH]nc(CN)c3c2)c1-c1c(F)c(Cl)cc(OC2CC2)c1C#N [HCl salt, 2-(4-(4-(aminomethyl)-1-oxo-1,2-dihydrophthalazin-6-yl)-1-methyl-1H-pyrazol-5-yl)-4-chloro-6-cyclopropoxy-3-fluorobenzonitrile hydrochloride salt]
variability of plasma exposure ([1]; pentagastrin-treated dogs, oral 100 mg/dog, ascribed to common ion effect in the gastric media): high variability

Cn1ncc(-c2ccc3c(=O)[nH]nc(CN)c3c2)c1-c1c(F)c(Cl)cc(OC2CC2)c1C#N [amorphous HCl salt, 2-(4-(4-(aminomethyl)-1-oxo-1,2-dihydrophthalazin-6-yl)-1-methyl-1H-pyrazol-5-yl)-4-chloro-6-cyclopropoxy-3-fluorobenzonitrile]
Crystal Form ([6]; EtOH/H2O (40:60 v/v) at 25° C., 1d (a clear solution was obtained before precipitation)): Pattern A

Source: US20260234128A1, “CRYSTALLINE FORMS OF 2-(4-(4-(AMINOMETHYL)-1-OXO-1,2- DIHYDROPHTHALAZIN-6-YL)-1-METHYL-1H- PYRAZOL-5-YL)-4-CHLORO-6-CYCLOPROPOXY-3-FLUOROBENZONITRILE” (MIRATI THERAPEUTICS, INC., priority 2023, published 2026)
